Test [1] deals with T1, cycline D1/CDK4 (Homo sapiens, UniProt P11802).
T1 construct: His6; made in house; host or cells: High Five insect cells (BTI-TN-5B1-4), recombinant baculovirus with two promoters
The test is described as follows: Test 1: inhibition of cycline/CDK enzyme in vitro activity. Type of test: biochemical. As to conditions: GST-tagged pRB substrate; 45 minutes at 30° C.; 1% DMSO. An excerpt:
Inhibition of cycline/CDK Enzyme in vitro Activity
High Five™ insect cells (BTI-TN-5B1-4) which had been infected with a high titre of recombinant baculovirus were used to produce active human cycline/CDK holoenzymes. By using a baculovirus vector which contained two promoters (polyhedrin enhancer promoter, P10 enhancer promoter), GST-tagged cyclines (e.g. cycline D1 or cycline D3) with the corresponding His6 -tagged CDK subunit (e.g. for CDK4 or CDK6) were expressed in the same cell. The active holoenzyme was isolated by affinity chromatography on glutathione sepharose. Recombinant GST-tagged pRB (aa 379-928) was produced in E. coli and purified by affinity chromatography on glutathione sepharose.
The substrates used for the kinase assays depended on the specific kinases. Iistone H1 (Sigma) was used as the substrate for cycline E/CDK2, cycline A/CDK2, cycline B/CDK1 and for v-cycline/CDK6. GST-tagged pRB (aa 379-928) was used as substrate for cycline D1/CDK4, cycline D3/CDK4, cycline D1/CDK6 and for cycline D3/CDK6.
Lysates of the insect cells infected with recombinant baculovirus or recombinant kinases (obtained from the lysates by purification) were incubated together with radiolabelled ATP in the presence of a suitable substrate with various concentrations of the inhibitor in a 1% DMSO solution (dimethyl sulphoxide) for 45 minutes at 30° C. The substrate proteins with associated radioactivity were precipitated with 5% TCA (trichloroacetic acid) in water-repellent PVDF multi-well microtitre plates (Millipore) or with 0.5% phosphoric acid solution on Whatman P81 filters. After the addition of scintillation liquid the radioactivity was measured in a Wallace 1450 Microbeta Liquid Scintillation Counter. For each concentration of the substance double measurements were carried out; IC50 values were calculated for the enzyme inhibition.

The subject of test [2] is SK-UT-1B cells (Leimyosarcoma tumour cell line). Kind of test: Test 2: inhibition of the proliferation of cultivated human tumour cells (14C-thymidine incorporation). Type of test: cell-based. As to conditions: Skut1B, 48 hours' incubation, then 14C-thymidine for a further 24 hours, read-out: Inhibiting the proliferation of SKUT-1B cells: IC50. On the procedure:
Inhibition of the Proliferation of Cultivated Human Tumour Cells
Cells of the Leimyosarcoma tumour cell line SK-UT-1B (obtained from the American Type Culture Collection (ATCC)) were cultivated in Minimum Essential Medium with non-essential amino acids (Gibco), supplemented with sodium pyruvate (1 mmol), glutamine (2 mmol) and 10% foetal calf serum (Gibco) and harvested during the log-growth phase. Then the SK-UT-1B cells were added to Cytostar® multi-well plates (Amersham) at a density of 4000 cells per well and incubated overnight in an incubator. Various concentrations of the compounds (dissolved in DMSO; final concentration: <1%) were added to the cells. After 48 hours' incubation ^14 C-thymidine (Amersham) was added to each well and incubation was continued for a further 24 hours. The quantity of ^14 C-thymidine incorporated into the tumour cells in the presence of the inhibitor and representing the number of cells in the S phase was measured in a Wallace 1450 Microbeta Liquid Scintillation Counter. IC50 values for the inhibition of proliferation (=inhibition of incorporated ^14 C-thymidine) were calculated, correcting for the background radiation. All the measurements were done twice.
(Dividing cells build labelled thymidine or BrdU into new DNA.)

Test [3] concerns tumour (SK-UT-1B, or non-small cell lung tumour NCI-H460). The test is described as follows: Test 3: in vivo effects on tumour-bearing nude mice. Further details: species or system nude mice (NMRI nu/nu). The settings on record: 100 mg/kg p.o. once a day for two weeks; male nude mice (n=9); significant, p<0.05. How it is done:
In vivo Effects on Tumour-bearing Nude Mice
10^6 cells [SK-UT-1B, or non-small cell lung tumour NCI-H460 (obtained from ATCC)] in a volume of 0.1 ml were injected subcutaneously into male and/or female nude mice (NMRI nu/nu; 25-35 g; N=10-20); alternatively, small fragments of SK-UT-1B or NCI-H460 cell clumps were implanted subcutaneously. One to three weeks after the injection or implantation a kinase inhibitor was administered daily by oral route for a period of 2 to 4 weeks (by oesophageal tube). The size of the tumour was measured three times a week using a digital sliding gauge. The effect of a kinase inhibitor on the tumour growth was determined as a percentage inhibition compared with a control group treated with placebo.

The values that follow come from patent publication US6043254A, “Indolinones having kinase-inhibiting activity” (Boehringer Ingelheim Pharma KG, priority 1998, dated 2000).

T1 sequence (P11802 whole entry): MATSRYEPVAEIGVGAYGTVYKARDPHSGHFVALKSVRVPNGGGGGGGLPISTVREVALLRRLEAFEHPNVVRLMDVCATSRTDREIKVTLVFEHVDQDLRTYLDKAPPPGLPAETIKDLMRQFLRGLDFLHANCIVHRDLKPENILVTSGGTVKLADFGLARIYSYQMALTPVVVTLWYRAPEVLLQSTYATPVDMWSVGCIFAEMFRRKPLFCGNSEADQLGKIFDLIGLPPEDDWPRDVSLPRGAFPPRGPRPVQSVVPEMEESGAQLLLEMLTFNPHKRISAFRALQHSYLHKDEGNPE
T1 sequence (P24385 whole entry partner): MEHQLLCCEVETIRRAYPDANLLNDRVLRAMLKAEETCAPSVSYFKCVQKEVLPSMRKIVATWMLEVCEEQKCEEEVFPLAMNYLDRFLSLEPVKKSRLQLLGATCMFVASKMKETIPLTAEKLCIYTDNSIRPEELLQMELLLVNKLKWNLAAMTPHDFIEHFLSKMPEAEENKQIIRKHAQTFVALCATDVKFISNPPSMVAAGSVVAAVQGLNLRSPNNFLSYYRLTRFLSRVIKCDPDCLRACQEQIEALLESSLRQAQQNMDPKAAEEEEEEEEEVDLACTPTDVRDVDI

Turning to `O=C1Nc2ccc([N+](=O)[O-])cc2/C1=C(/Nc1ccc(-c2c[nH]cn2)cc1)c1ccccc1` [Example 2.5], the results for the IC50 in test [1] and in test [2] were 1000 nM and 340 nM, respectively. Moreover, the “reduction in the tumour size” value in test [3] was “around 65%”.

In the case of `Cn1ccnc1-c1ccc(N/C(=C2\C(=O)Nc3ccc([N+](=O)[O-])cc32)c2ccccc2)cc1` [Example 3.12, 3-{(Z)-1-[4-(1-methyl-1H-imidazol-2-yl)anilino]-1-phenylmethylidene}-5-nitro-2-indolinone], the IC50 in test [2] came to 400 nM.

Consider `O=C1Nc2ccc([N+](=O)[O-])cc2/C1=C(/Nc1ccc(CN2CCCC2)cc1)c1ccccc1` [Example 3.18, 3-{(Z)-1-[4-((pyrrolidin-1-yl)methyl)anilino]-1-phenylmethylidene}-5-nitro-2-indolinone], for which, in test [2], the IC50 was 220 nM.

The molecule `O=C1Nc2ccc([N+](=O)[O-])cc2/C1=C(/Nc1ccc(CCN2CCCC2)cc1)c1ccccc1` [Example 4.9, 3-{(Z)-1-[4-(2-(pyrrolidin-1-yl)ethyl)anilino]-1-phenylmethylidene}-5-nitro-2-indolin] returned an IC50 in test [1] of 55 nM.

Take `O=C1Nc2ccc([N+](=O)[O-])cc2/C1=C(/Nc1ccc(CN2C(=O)CCC2=O)cc1)c1ccccc1` [Example 4.11, 3{(Z)-1-[4-((2,5-dioxo-pyrrolidin-1-yl)methyl)anilino]-1-phenylmethylidene}-5-nitro-2-indolinone]: the IC50 in test [2] was determined as 530 nM.

Regarding `O=C1Nc2ccccc2/C1=C(/Nc1ccc(-c2cn3cccnc3n2)cc1)c1ccccc1` [Example 8.3, 3-{(Z)-1-[4-(imidazo[1,2-a]pyrimidin-2-yl)anilino]-1-phenylmethylidene}-2-indolinone], the IC50 in test [2] came out at 1300 nM.

`O=C1Nc2ccc([N+](=O)[O-])cc2/C1=C(/Nc1ccc2c(c1)CCNC2)c1ccccc1` [Example 14.1, 3-{(Z)-1-[(1,2,3,4-tetrahydro-isoquinolin-6-yl)amino]-1-phenylmethylidene}-5-nitro-2-indolinone] showed an IC50 in test [1] of 150 nM.

The molecule `CC(=O)N1CCc2cc(N/C(=C3\C(=O)Nc4ccc([N+](=O)[O-])cc43)c3ccccc3)ccc2C1` [Example 18.2, 3-{(Z)-1-[(2-acetyl-1,2,3,4-tetrahydro-isoquinolin-6-yl)-amino]-1-phenylmethylidene}-5-nitro-2-indolinone] came in with an IC50 in test [1] of 1400 nM.
